In patent publication US20180318355A1, “METHODS AND COMPOSITIONS FOR IMPROVED TISSUE REGENERATION BY SUPPRESION OF INTERFERIN-GAMMA AND TUMOR NECROSIS FACTOR-ALPHA” (Alfred E. Mann Institute for Biomedical Eng. at the …, priority 2011, published 2018):
Entries after “also recorded” stand apart in the source; their conditions may differ.

Experiments:
IFN-γ = test: ELISA of IFN-γ level in BMMSC implants; format: in vivo, mice; settings: aspirin treatment vs untreated control, 2 to 14 days post implantation
Text: (§1) Kits. Pan T cell isolation kit II and CD4^+CD25^+ regulatory T Cell isolation kit were purchased from Miltenyi Biotec (Bergisch Gladbach, Germany). Mouse IFN-γ, TNF-α, IL-6, IL-17A, IL-4 and IL-10 ELISA Ready-SET-GO kits were purchased from eBioscience (San Diego, Calif.). siRNA kits for Fas, Smad 6, TNFR2, IKK, FLIP and XIAP were purchased from Santa Cruz Biosciences (Santa Cruz, Calif.).

[1] = test system: osteoclastogenesis, osteogenesis; settings: literature (13-15); cited from earlier work
IFN-γ positive cells = test: Immunohistochemical staining of IFN-γ positive cells in BMMSC implants; format: in vivo; settings: aspirin treated vs untreated control, C57BL6 mice
Protocol: (§2) Immunofluorescent and immunochemical microscopy. The transplants were harvested, fixed in 4% paraformaldehyde and then decalcified with 5% ethylenediaminetetraacetic acid (EDTA, pH 7.4), followed by paraffin or optimal cutting temperature compound (OCT, Sakura Fineteck Inc., Torrance, Calif.) embedding. The paraffin or frozen sections were blocked with normal serum matched to secondary antibodies, incubated with the specific or isotype-matched mouse antibodies (1:200) overnight at 4° C. For immunofluorescent staining, the samples were treated with Rhodamin/FITC-conjugated secondary antibodies (1:200, Jackson ImmunoResearch, West Grove, Pa.; Southern Biotechnology, Birmingham, Ala.), and were mounted by means of a vectashield mounting medium containing 4′,6-diamidino-2-phenylindole (DAPI) (Vector Laboratories, Burlingame, Calif.). For immunochemical staining, the samples were stained by using Zymed SuperPicture™ Kit (Invitrogen Corporation) according to the manufacturer's instruction.
(§3) Immunochemical microscopy. The transplants were harvested, fixed in 4% paraformaldehyde and then decalcified with 5% ethylenediaminetetraacetic acid (EDTA, pH 7.4), followed by paraffin or optimal cutting temperature compound (OCT, Sakura Fineteck Inc., Torrance, Calif.) embedding. […]

TNF-α positive cells = test: Immunohistochemical staining of TNF-α positive cells in BMMSC implants; format: in vivo; settings: aspirin treated vs untreated control, C57BL6 mice
Protocol: as §2, §3

IL-10 = test: ELISA of IL-10 level in BMMSC implants; format: in vivo, mice; settings: aspirin treatment vs untreated control, 2 to 14 days post implantation
Text: as §1

GFP^+ BMMSCs = test: Cell survival assay, subcutaneous GFP+ BMMSC implantation; format: in vivo, mice
Protocol: Cell survival assay. 4×10^6 BMMSCs isolated from C57BL/6-Tg (CAG-EGFP)1Osb/J mice were combined with different concentrations of IFN-γ (0, 20, 50, 100, 200 ng/ml) and TNF-α (0, 20, 50, 100, 200 ng/ml) and subcutaneously transplanted into immunocompromised mice, hydrogel was used as a slowly released carrier. Thirty days after translation, the implants were harvested and digested in a solution of 3 mg/mL collagenase type I (Worthington Biochem) and 4 mg/mL dispase (Roche) for 1 h at 37° C. Single-cell suspensions were obtained by passing the cells through a 70 μm strainer (BD Bioscience). 1.0-1.5×10^6 BMMSCs were seeded into 100 mm culture dishes (Corning) and incubated for 48 hours under 37° C. at 5% CO2 condition. To eliminate the non-adherent cells, the cultures were washed with PBS twice. The attached cells were cultured for 10 days with alpha minimum essential medium (α-MEM, Invitrogen) supplemented with 20% FBS, 2 mM L-glutamine (Invitrogen), 55 μM 2-mercaptoethanol (Invitrogen), 100 U/ml penicillin, and 100 μg/ml streptomycin (Invitrogen). The numbers of GFP positive cells were counted under fluorescent microscopy.

calvarial bone defects = test: Calvarial bone defect repair by BMMSC/gelfoam implantation; format: in vivo, C57BL/6J mice
Protocol: Calvarial bone defect model in C57BL/6J mice. The skin of C57BL/6J mice was cut and periosteum was elevated. The surface of mouse cavarial bone was exposed, and oversize bone defects of 7 mm×8 mm were established. The bone defect was larger than usually critical size with diameter of 4 mm.
Implantation of BMMSCs to calvarial bone defects in C57BL/6J mice. 4×10^6 BMMSCs were seeded to a size of 7 mm×8 mm gelfoam (Pharmaca, Boulder, Colo.) and cultured for 3 days in vitro. The gelfoam with BMMSCs was placed to the calvarial bone defects and covered completely by skins. For aspirin treated group, the BMMSCs seeded on gelfoam were pretreated with 50 μg/ml aspirin for 3 days, then placed to the calvarial bone defect. Another gelfoam with 100 μg aspirin as a releasing system was covered on the surface of the gelfoam with BMMSCs (FIG. 14).

[2] = test system: BMMSC-mediated bone formation; test: BMMSC-mediated bone formation, subcutaneous BMMSC/HA/TCP implantation; format: in vivo; settings: immunocompromised mice
Protocol: BMMSC-mediated bone formation. Approximately 4.0×10^6 BMMSCs were mixed with hydroxyapatite/tricalcium phosphate (HA/TCP) ceramic particles (40 mg, Zimmer Inc., Warsaw, Ind.) as a carrier and subcutaneously implanted into the dorsal surface of 8-10 weeks old immunocompromised mice or C57BL/6J mice. At eight weeks post-implantation, the implants were harvested, fixed in 4% paraformaldehyde and then decalcified with 5% EDTA (pH 7.4), followed by paraffin embedding. The 6 μm paraffin sections were stained with hematoxylin and eosin (H&E) and analyzed by an NIH Image J. Five fields were selected and newly formed mineralized tissue area in each field was calculated and shown as a percentage to total tissue area.
Cytokines in BMMSC-mediated bone formation. Approximately 4.0×10^6 of littermate-derived or autologous BMMSCs were mixed with HA/TCP ceramic powders (40 mg, Zimmer Inc.), and hydrogel (Glycosan Biosysterms, Salt Lake City, Utah) with 200 ng IFN-γ, TNF-α, IL-4, IL-6 or IL-17A were covered on the surface of the implants as a slow released system. At eight weeks post-implantation, the implants were harvested and newly formed mineralized tissue areas were analyzed. […]
BMMSC-mediated bone formation. Approximately 4.0×10^6 of littermate-derived or autologous BMMSCs were mixed with hydroxyapatite/tricalcium phosphate (HA/TCP) ceramic particles (40 mg, Zimmer Inc., Warsaw, Ind.) as a carrier and subcutaneously implanted into the dorsal surface of 8-10 weeks old immunocompromised mice or C57BL6 mice. When aspirin was used, BMMSCs were treated with 50 μg/ml aspirin for 2 days and mixed with HA/TCP particles to be subcutaneously implanted into immunocompromised mice. When IFN-γ and TNF-α were used in the subcutaneous implants, 200 ng IFN-γ, TNF-α or/and 100 μg aspirin mixed with 250 μl hydrogel as a slow released system and subcutaneously co-implanted to the dorsal surface of 8-10 weeks old immunocompromised mice.
At eight weeks post-implantation, the implants were harvested, fixed in 4% paraformaldehyde and then decalcified with 5% EDTA (pH 7.4), followed by paraffin embedding. The 6 μm paraffin sections were stained with hematoxylin and eosin (H&E) and analyzed by an NIH Image J. Five fields were selected and newly formed mineralized tissue area in each field was calculated and shown as a percentage to total tissue area.

TNF-α = test: ELISA of TNF-α level in BMMSC implants; format: in vivo, mice; settings: aspirin treatment vs untreated control, 2 to 14 days post implantation
Text: as §1

Fas = Fas internalization (immunocytochemical staining); format: cell-based, mouse; settings: caspase inhibitor in IFN-γ/TNF-α-treated BMMSCs vs control group
Protocol: (§4) SiRNAs for Fas, TNFR2, IKK, FLIP and XIAP were used to treat the BMMSCs according to the manufacture's instruction, and IFN-γ and TNF-α were added for 24 hrs. Inhibitors for internalization (Latrunculin A, 0.2 μM), pan caspase (Z-VAD (OMe)-FMK, 50 μM), caspase 8 ([…], 20 μM) and caspase 3 (Z-DEVD-FMK, 20 µM) were used to treat the BMMSCs at 4 hrs before IFN-γ and TNF-α were added. Cell apoptosis were analysis by immunofluorescence staining and FACS^Calibur (Annexin V-PE apoptosis detection kit I) and Western blot analysis for caspase 8, cleaved caspase 8, caspase 3 and cleaved caspase 3.
Fas internalization. P1 BMMSCs were seeded to 2-well chamber slide. IFN-γ (50 ng/ml) was added to pre-treat BMMSCs for 24 hours, and then TNF-α (20 ng/ml) was added. At the 0.5, 1, 2, 4 hours after TNF-α was added, the cells were washed by PBS twice, and fixed with 4% PFA for 15 min. After treated by Triton-X 15 min, the cells were blocked with normal serum matched to secondary antibodies, incubated with 1 μg/ml anti-Fas (Santa Cruz) antibody at room temperature for 2 hours, treated with Rhodamin-conjugated secondary antibodies (1:200, Jackson ImmunoResearch). Then the cells were incubated with ([…] (1:40; Invitrogen) at room temperature for 20 min, and were mounted by vectashield mounting medium DAPI (Vector Laboratories).

BMMSCs [3] = test: siRNA and inhibitors: IFN-γ/TNF-α-induced BMMSC death; format: cell-based, mouse; settings: siRNA or inhibitor treatment before IFN-γ/TNF-α, toluidine blue staining
Protocol: as §4

[4] = test system: Fas, caspase 8, caspase 3; test: Western blot of Fas, cleaved caspase 8 and cleaved caspase 3 in BMMSCs; format: cell-based, mouse
Protocol: Western blot analysis. Total protein was extracted using M-PER mammalian protein extraction reagent (Thermo, Rockford, Ill.). Nuclear protein was obtained using NE-PER nuclear and cytoplasmic extraction reagent (Thermo). Protein was applied and separated on 4-12% NuPAGE gel (Invitrogen) and transferred to Immobilon™-P membranes (Millipore). The membranes were blocked with 5% non-fat dry milk and 0.1% tween-20 for 1 hour, followed by incubation with the primary antibodies (1:20¬1000 dilution) at 4° C. overnight. Horseradish peroxidase-conjugated IgG (Santa Cruz Biosciences; 1:10,000) was used to treat the membranes for 1 hour, and enhanced with a SuperSignal® West Pico Chemiluminescent Substrate (Thermo). The bands were detected on BIOMAX MR films (Kodak, Rochester, N.Y.). Each membrane was also stripped using a stripping buffer (Thermo) and reprobed with anti-β-actin antibody to quantify the amount of loaded protein.
as §4

BMMSCs [5] = test: Cell apoptosis and cell survival assay in vitro (toluidine blue, Annexin V); settings: TNF-α 0, 5, 50, 100 ng/ml, flow cytometric analysis
Protocol: Cell apoptosis and cell survival assay. 0.5×10^6 BMMSCs were seeded to 6-well culture plate and co-cultured with different doses of recombined IL-4, IL-6, IL-17A, TGF-β1, TNF-α and IFN-γ (0, 10, 20, 50, 100, 200 ng/ml) for 3 days. To measure the cell viability, the total cells were analyzed by using a cell counting kit-8 (Dojindo Molecular Technoloies, Gaithersburg, Md.) according to the manufacture's instruction. And the culture plates with cells were stained with 2% toluidine blue O and 2% paraformaldehyde (Sigma-Aldrich Corporate, St. Louis, Mo.).
For cell apoptosis analysis, the BMMSCs were stained by Annexin V-PE apoptosis detection kit I (BD Bioscience) following manufacture's protocol, and analyzed by FACS^Calibur (BD Bioscience).
IFN-γ and TNF-α synergism for apoptosis. For cell apoptosis staining, the 1×10^4 BMMSCs were seeded onto two chambers slide, IFN-γ (50 ng/ml) and TNF-α (20 ng/ml) were used to treat the BMMSCs for 24 hrs either separately or combined, Annexin V-PE apoptosis detection kit I (BD Bioscience) was used to stain the BMMSCs following manufacture's protocol, and analyzed on microscopy and FACS^Calibur (BD Bioscience). Cell viability was analyzed by using cell counting kit, and culture plates were stained with 2% toluidine blue O and 2% paraformaldehyde.
IFN-γ and TNF-α synergism for apoptosis. 0.5×10^6 BMMSCs were seeded to 6-well culture plate and co-cultured with different doses of TNF-α (0, 5, 50, 100 ng/ml) with or without IFN-γ (50 ng/ml) for I day. Then, the BMMSCs were stained by Annexin V-PE apoptosis detection kit I (BD Bioscience) following manufacture's protocol, and analyzed by FACS^Calibur (BD Bioscience).

[6] = siRNA or inhibitor treatment before IFN-γ/TNF-α
[7] = wild type BMMSCs, IFN-γ 50 ng/ml, TNF-α 20 ng/ml, alone or co-stimulated

For CC(=O)Oc1ccccc1C(=O)O [aspirin], the “level of IFN-γ in BMMSC implants” value (IFN-γ) is listed as “reduces; also recorded: suppressed”, the osteoclastogenesis [1] is listed as “inhibits osteoclastogenesis” and the osteogenesis [1] is listed as “improves osteogenesis”. The “IFN-γ positive cells in BMMSC implants” value (IFN-γ positive cells) was “significantly decreased; also recorded: suppressive effect”, the “TNF-α positive cells in BMMSC implants” value (TNF-α positive cells) was “significantly decreased; also recorded: suppressive effect” and the “level of IL-10 in BMMSC implants” value (IL-10) was “not and without affecting”. For the same molecule, the “numbers of surviving GFP positive BMMSCs in implants” value (GFP^+ BMMSCs; 50 μg/ml aspirin pre-treated 2 days, 100 μg aspirin co-implanted, 4 to 30 days post implantation) was “significantly increased numbers of survival cells; also recorded: significant increase in survival of BMMSCs”, the “repair of 7×8 mm calvarial bone defects” value (calvarial bone defects; BMMSCs cultured with 50 μg/ml aspirin, gelfoam containing 100 μg aspirin, 12 weeks, microQCT, vs BMMSC/gelfoam) was “completely repaired; also recorded: significantly improves BMMSC-based calvarial defect repairing; also recorded: marked improvement in repairing calvarial defects” and the “structure of regenerated tissues versus normal calvarial tissues” value (calvarial bone defects; BMMSCs with gelfoam containing aspirin (100 μg)) was “analogous to normal calvarial tissues”. For the same molecule, the “BMMSC-mediated bone formation suppressed by IFN-γ or TNF-α” value ([2]; 200 ng IFN-γ or TNF-α co-implanted, 50 μg/ml aspirin pre-treatment and 100 μg aspirin co-implanted) was “significant rescuing of BMMSC-mediated bone formation; also recorded: restored bone formation”, the “amount of new bone formation” value ([2]; BMMSCs treated with 50 μg/ml aspirin for 2 days, HA/TCP, vs untreated control) was “increased” and the “level of TNF-α in BMMSC implants” value (TNF-α) was “reduces; also recorded: suppressed”.

In the case of COC(=O)CC[C@H](NC(=O)[C@H](CC(=O)OC)NC(=O)OCc1ccccc1)C(=O)N[C@H](C(=O)N[C@@H](CC(=O)OC)C(=O)CF)C(C)C [Caspase 3 inhibitor, Z-DEVD-FMK], the “number of BMMSCs with Fas internalization” value (Fas) is reported as “reduced number of Fas internalization”, the “IFN-γ/TNF-α-induced BMMSC death” value (BMMSCs [3]) is reported as “rescuing IFN-γ/TNF-α-induced BMMSC death” and the “cleaved caspase 3 in IFN-γ/TNF-α-treated BMMSCs” value [4, 6] is reported as “partially inhibition”. The “cleaved caspase 8 in IFN-γ/TNF-α-treated BMMSCs” value [4, 6] was “no inhibitive effect”.

With TNF-α the BMMSC apoptosis (BMMSCs [5]) was “dose-dependent BMMSC apoptosis”, the Fas expression [4, 7] was “slightly increase” and the “activation of caspase 3 and caspase 8” value [4, 7] was “slightly increase”. For the same molecule, the “numbers of surviving BMMSCs in implants” value (GFP^+ BMMSCs; TNF-α 50 ng/ml, immunocompromised mice, 30 days post implantation, vs untreated control) was “marked reduction in the numbers of survived BMMSCs; also recorded: significant reduction in the numbers of surviving cells” and the “new bone formation in BMMSC implants” value ([2]; 200 ng cytokine in hydrogel co-implanted with BMMSCs/HA/TCP, 8 weeks post implantation) was “very limited bone formation; also recorded: inhibited subcutaneous bone formation; also recorded: reduced BMMSC-mediated bone formation; also recorded: significantly reduced bone formation”.
